Columns and labels:
[1] = test system: BCEC confluent monolayers; test: BCEC scratch assay; format: cell-based, bovine
Experimental: BCECs (passage 6-10) and HUVEC (passage 6-8) were used in this assay. Cells were grown until about 80% confluency in 6-well plates, washed twice with PBS and then starved in serum-free DMEM (low Glucose, Hyclone) for 5 hrs before making a “scratch” using 1 ml tip. Cell monolayers were briefly washed once with serum-free media, followed by various treatments in media containing 1% FBS. 48 hrs later, the assay was stopped by adding 2 ml 4% paraformaldehyde. 20 min later, fixed cells were stained with 1 ml Crystal Violet (Sigma). Plates were washed gently under the running tap water and air-dried before taking pictures. Images were acquired by ZEISS Discovery […] microscopy equipped with […] camera. Quantification of wound closure was done using AxioVision LE Rel.4.4 software. Six images were taken for each sample and six measurements (in pixel) were made on each image using AxioVision LE Re1.4.4 software.

[2] = test system: ERK, AKT, mTOR, CREB, ACC and eNOS; test: Western blot of signal transduction pathways in BCECs; format: cell-based, bovine
Experimental: Cells were allowed to reach-80% confluency in 12-well plates. […] At various time points, plates were taken out of the incubator and kept on ice. […] Lysates were collected and mixed with 4× Bolt LDS Sample Buffer (Novex, Carlsbad, CA) in the presence of Halt protease inhibitors and phosphatase inhibitor cocktail (ThermoFisher scientific, #NP0007). […] HUVECs (passage 6-8) were plated in EBM-2 basal medium (Lonza) with 0.2% FBS. Following overnight culture, cells were serum-starved in EBM-2 medium for 4 hrs prior to treatment with 50 ng/ml of VEGF165 or vehicle controls for various lengths. Equal amounts of protein lysates were analyzed by SDS-PAGE and blotted with the indicated antibodies. Proteins were transferred using Tris-Glycine buffer with 20% Methanol (Proteonomics grade) (Apex BioResearch Products). Membranes were first incubated with 5% milk in TBST, pH 7.6 (TEKnova, Hollister, CA), followed by blotting with primary and secondary antibodies. ECL anti-rabbit IgG, horseradish peroxidase linked whole antibody from donkey or sheep anti-mouse were obtained from GE Healthcare (UK limited). SuperSignal West Dura Extended Duration substrate was from ThermoFisher Scientific. In some cases, the same PVDF membranes were stripped by 8-min incubation in the Restore Plus Western Blot Stripping Buffer (ThermoFisher Scientific) to show total specific protein expression, followed by second stripping for (3-actin expression.

[3] = test system: retinal vasculature; test: Retinal neovascularization after intravitreal injection; format: in vivo, mouse; conditions: 500 ng ManN or Kif, 200 ng bFGF intravitreally; after seven days
Experimental: The effect of ManN and Kif on inducing retinal neovascularization was assessed. The findings in cultured eye-derived EC were extended to a suitable in vivo model system. The mouse retina has been used extensively over the past decades to study both physiological and pathological angiogenesis. To obtain a detailed description of the retinal vasculature, images from retinal flat mounts were processed for vascular area fraction (ratio of area covered by blood vessels to total retinal area). Using this model, the effects of ManN in retinal neovascularization were assessed. Kif was also tested in this model because it is a water-soluble inhibitor and its mechanism of glycosylation inhibition is well established. In addition, it shares with ManN the ability to activate ERK, AKT and stress pathways in BCEC (FIG. 7E).
Assessment of retinal angiogenesis following intravitreal administration was done. Briefly, 6-8 weeks old C57BL/6 male mice were randomly allocated to different groups and anesthetized with ketamine/Xylazine cocktail. The indicated amounts of ManN, Kif or bFGF (R&D systems, AF-233-NA) in 1 μl of PBS and PBS vehicle control were injected intravitreally with a 33-gauge Hamilton syringe. Seven days after injection, animals were euthanized. Eyes were then enucleated and fixed in 4% paraformaldehyde (PFA) for 30 mins. Retinas were separated and stained with anti-CD31 immunofluorescence (IF) to evidence the vasculature. Evaluations were performed by an investigator blinded to the treatment. For CD31 IF, rat anti-mouse antibody (BD Biosciences, CAT #550274) was diluted 1:100 and incubated overnight at 4° C. After 4-hour incubation with the Alexa Fluor-488-conjugated anti-rat antibody (Life Technologies, A11006), whole mounts were imaged via the 488 nm channel using AIR Confocal STORM super-resolution system (Nikon). Quantification of vascular density in choroids and retina was carried out by Image J. Each experiment was repeated three times with similar results, and each treatment group consists of 5 individual samples.

[4] = test system: JNK/c-jun; test: Western blot of JNK pathway activation in BCECs; format: cell-based, bovine
Experimental: Cells were allowed to reach-80% confluency in 12-well plates. […] At various time points, plates were taken out of the incubator and kept on ice. Cell monolayers were first washed once with ice-cold PBS before lysis with 250 μI of Pierce RIPA buffer (ThermoFisher Scientific, Rockford, IL) or use 50 mM Tris-HCl (pH 7.6), 150 mM NaCl, 10% Glycerol, 1% NP-40 containing protease/Phosphatase inhibitor cocktail (100×) (Cell signaling, #5872). Lysates were collected and mixed with 4× Bolt LDS Sample Buffer (Novex, Carlsbad, CA) in the presence of Halt protease inhibitors and phosphatase inhibitor cocktail (ThermoFisher scientific, #NP0007). The samples were subjected to SDS-PAGE (Bolt 4-12% Bis-Tris Plus, Invitrogen) using Bolt MES SDS running buffer or NuPAGE 3-8% Tris-Acetate gel using Tris-Acetate SDS running buffer (Novex). HUVECs (passage 6-8) were plated in EBM-2 basal medium (Lonza) with 0.2% FBS. Following overnight culture, cells were serum-starved in EBM-2 medium for 4 hrs prior to treatment with 50 ng/ml of VEGF165 or vehicle controls for various lengths. Equal amounts of protein lysates were analyzed by SDS-PAGE and blotted with the indicated antibodies. Proteins were transferred using Tris-Glycine buffer with 20% Methanol (Proteonomics grade) (Apex BioResearch Products). Membranes were first incubated with 5% milk in TBST, pH 7.6 (TEKnova, Hollister, CA), followed by blotting with primary and secondary antibodies. ECL anti-rabbit IgG, horseradish peroxidase linked whole antibody from donkey or sheep anti-mouse were obtained from GE Healthcare (UK limited). SuperSignal West Dura Extended Duration substrate was from ThermoFisher Scientific. In some cases, the same PVDF membranes were stripped by 8-min incubation in the Restore Plus Western Blot Stripping Buffer (ThermoFisher Scientific) to show total specific protein expression, followed by second stripping for (3-actin expression.

SMILES	gap closing in BCEC scratch assay by glycosylation inhibitors ([1]; over 48 hours relative to control)	activation of ERK and AKT in BCECs by glycosylation inhibitors ([2]; 40 μM, FIG. 7E)	increase in density of retinal vessels vs PBS group [3] [%]	activation of the JNK pathway by glycosylation inhibitors ([4]; 40 μM, BCECs, FIG. 7E)	closure of the scratched area vs control ([1]; 40 μM ManN or 50 ng/ml of VEGF, after 48 hours)	additivity of ManN and VEGF in scratch assay ([1]; both ManN and VEGF)	activation of eNOS and ACC ([2]; 40 μM ManN, within 10-30 minutes)	activation of ERK, AKT, mTOR and CREB ([2]; 40 μM, BCECs)	time to stimulation of ERK, AKT and CREB after adding ManN ([2]; 40 μM, BCECs) [min]	activation of ERK, AKT and CREB with ManN plus VEGF vs either alone ([2]; both ManN and VEGF present)	activation of JNK and downstream c-Jun ([4]; BCECs switched to media without growth factors, 4 μM-4 mM, four hours)
O=C1N[C@@H]2[C@@H](O)[C@@H](O)[C@H](O)[C@@H](CO)N2C1=O [Kif, Kifunensine, reference compound]	significant activity	significantly activate ERK and AKT	~20	able to activate the JNK pathway	–	–	–	–	–	–	–
N[C@H](C=O)[C@@H](O)[C@H](O)[C@H](O)CO [ManN, 2-Amino-2-deoxy-D-mannose]	–	–	~30	–	significantly accelerated BCEC migration and/or proliferation	additivity was observed	significantly activated	activated	10 to 30	enhancement in activation	significantly activated by ManN in a dose-dependent manner
